Experimental data published in ChEMBL document CHEMBL1201862, “PubChem BioAssay data set” (2004).
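Compound exposure: 48 hours, 5 concentrations, 96-well plates. GI50 marks 50% less growth.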 The source made the active and inactive calls. Cut-off read from the data, not from the text of the source: active = GI50 up to about 1.1 µM and inactive = higher.

Key:
Experiment in all cases: NCI tumour cell line growth inhibition, 48 h
UACC-257 = system: UACC-257
NCI-H226 = system: NCI-H226
NCI-H23 = system: NCI-H23
OVCAR-8 = system: OVCAR-8
CAKI-1 = system: CAKI-1
OVCAR-3 = system: OVCAR-3
A549 = system: A549
SF-295 = system: SF-295
NCI/ADR-RES = system: NCI/ADR-RES
EKVX = system: EKVX
HCT-15 = system: HCT-15
ACHN = system: ACHN
OVCAR-5 = system: OVCAR-5
A498 = system: A498
RPMI-8226 = system: RPMI-8226
MDA-MB-435 = system: MDA-MB-435
K562 = system: K562
NCI-H522 = system: NCI-H522
KM12 = system: KM12
RXF 393 = system: RXF 393
SK-MEL-28 = system: SK-MEL-28
T47D = system: T47D
HOP-62 = system: HOP-62
TK-10 = system: TK-10
SF-268 = system: SF-268
786-0 = system: 786-0
COLO 205 = system: COLO 205
Hs-578T = system: Hs-578T
MDA-MB-231 = system: MDA-MB-231
DU-145 = system: DU-145
HOP-92 = system: HOP-92
SNB-19 = system: SNB-19
PC-3 = system: PC-3
BT-549 = system: BT-549
SR = system: SR
SF-539 = system: SF-539
Malme-3M = system: Malme-3M
SK-OV-3 = system: SK-OV-3
SK-MEL-5 = system: SK-MEL-5
NCI-H460 = system: NCI-H460
IGROV-1 = system: IGROV-1
HT-29 = system: HT-29
HCT-116 = system: HCT-116
HCC 2998 = system: HCC 2998
SW-620 = system: SW-620
UACC-62 = system: UACC-62
LOX IMVI = system: LOX IMVI
SK-MEL-2 = system: SK-MEL-2
MCF7 = system: MCF7
U-251 = system: U-251
M14 = system: M14
MOLT-4 = system: MOLT-4
CCRF-CEM = system: CCRF-CEM
SNB-75 = system: SNB-75
MDA-N = system: MDA-N
OVCAR-4 = system: OVCAR-4
UO-31 = system: UO-31
SN12C = system: SN12C

How did the GI50 (UACC-257) turn out when `COC(OC)C1OC(CO)C(n2cc(C)c(=O)[nH]c2=O)C1O` (centres undefined) was run?
The GI50 was > 100 µM (inactive).

And the GI50 (NCI-H226)?
The GI50 was > 100 µM (inactive).

What about the GI50 (NCI-H23) of the same compound?
The GI50 was > 100 µM (inactive).

What about the GI50 (OVCAR-8) of the same compound?
The GI50 was > 100 µM (inactive).

And the GI50 (CAKI-1)?
Its GI50 is > 100 µM (inactive).

What about the GI50 (OVCAR-3) of the same compound?
Its GI50 is > 100 µM (inactive).

And the GI50 (A549)?
Its GI50 is > 100 µM (inactive).

What about the GI50 (SF-295) of the same compound?
The GI50 was > 100 µM (inactive).

What about the GI50 (NCI/ADR-RES) of the same compound?
Its GI50 is > 100 µM (inactive).

And the GI50 (EKVX)?
The GI50 was > 100 µM (inactive).

What about the GI50 (HCT-15) of the same compound?
The GI50 was over 100 µM.

What about the GI50 (ACHN) of the same compound?
Its GI50 is > 100 µM (inactive).

And the GI50 (OVCAR-5)?
The GI50 was > 100 µM (inactive).

What about the GI50 (A498) of the same compound?
The GI50 was > 100 µM (inactive).

And the GI50 (RPMI-8226)?
Its GI50 is > 100 µM (inactive).

And the GI50 (MDA-MB-435)?
The GI50 was > 100 µM (inactive).

What about the GI50 (K562) of the same compound?
The GI50 was > 100 µM (inactive).

And the GI50 (NCI-H522)?
The GI50 was > 100 µM (inactive).

And the GI50 (KM12)?
Its GI50 is > 100 µM (inactive).

And the GI50 (RXF 393)?
The GI50 was 61.7 µM (inactive).

And the GI50 (SK-MEL-28)?
The GI50 was > 100 µM (inactive).

What about the GI50 (T47D) of the same compound?
Its GI50 is > 100 µM (inactive).

And the GI50 (HOP-62)?
Its GI50 is > 100 µM (inactive).

And the GI50 (TK-10)?
The GI50 was > 100 µM (inactive).

What about the GI50 (SF-268) of the same compound?
The GI50 was > 100 µM (inactive).

What about the GI50 (786-0) of the same compound?
The GI50 was > 100 µM (inactive).

What about the GI50 (COLO 205) of the same compound?
Its GI50 is > 100 µM (inactive).

And the GI50 (Hs-578T)?
The GI50 was > 100 µM (inactive).

What about the GI50 (MDA-MB-231) of the same compound?
Its GI50 is > 100 µM (inactive).

And the GI50 (DU-145)?
Its GI50 is > 100 µM (inactive).

What about the GI50 (HOP-92) of the same compound?
Its GI50 is > 100 µM (inactive).

What about the GI50 (SNB-19) of the same compound?
The GI50 was > 100 µM (inactive).

And the GI50 (PC-3)?
Its GI50 is > 100 µM (inactive).

What about the GI50 (BT-549) of the same compound?
Its GI50 is > 100 µM (inactive).

What about the GI50 (SR) of the same compound?
Its GI50 is > 100 µM (inactive).

What about the GI50 (SF-539) of the same compound?
The GI50 was > 100 µM (inactive).

And the GI50 (Malme-3M)?
Its GI50 is > 100 µM (inactive).

What about the GI50 (SK-OV-3) of the same compound?
The GI50 was > 100 µM (inactive).

What about the GI50 (SK-MEL-5) of the same compound?
Its GI50 is > 100 µM (inactive).

What about the GI50 (NCI-H460) of the same compound?
The GI50 was > 100 µM (inactive).

What about the GI50 (IGROV-1) of the same compound?
Its GI50 is > 100 µM (inactive).

And the GI50 (HT-29)?
Its GI50 is > 100 µM (inactive).

And the GI50 (HCT-116)?
The GI50 was > 100 µM (inactive).

And the GI50 (HCC 2998)?
The GI50 was > 100 µM (inactive).

And the GI50 (SW-620)?
Its GI50 is > 100 µM (inactive).

What about the GI50 (UACC-62) of the same compound?
The GI50 was > 100 µM (inactive).

And the GI50 (LOX IMVI)?
The GI50 was > 100 µM (inactive).

What about the GI50 (SK-MEL-2) of the same compound?
The GI50 was > 100 µM (inactive).

And the GI50 (MCF7)?
Its GI50 is > 100 µM (inactive).

And the GI50 (U-251)?
Its GI50 is > 100 µM (inactive).

What about the GI50 (M14) of the same compound?
The GI50 was > 100 µM (inactive).

What about the GI50 (MOLT-4) of the same compound?
Its GI50 is > 100 µM (inactive).

And the GI50 (CCRF-CEM)?
The GI50 was > 100 µM (inactive).

And the GI50 (SNB-75)?
The GI50 was > 100 µM (inactive).

And the GI50 (MDA-N)?
Its GI50 is > 100 µM (inactive).

And the GI50 (OVCAR-4)?
The GI50 was > 100 µM (inactive).

And the GI50 (UO-31)?
Its GI50 is > 100 µM (inactive).

And the GI50 (SN12C)?
The GI50 was > 100 µM (inactive).

For `O=C(Cc1nc2ccc([N+](=O)[O-])cc2nc1O)C(=O)Nc1cc(Cl)c(Cl)cc1Cl`, which GI50 (UACC-257) is on record?
Its GI50 is > 100 µM (inactive).

And the GI50 (NCI-H226)?
The GI50 was > 100 µM (inactive).

And the GI50 (NCI-H23)?
The GI50 was > 100 µM (inactive).

What about the GI50 (OVCAR-8) of the same compound?
Its GI50 is > 100 µM (inactive).

And the GI50 (CAKI-1)?
The GI50 was > 100 µM (inactive).

What about the GI50 (OVCAR-3) of the same compound?
Its GI50 is > 100 µM (inactive).

What about the GI50 (A549) of the same compound?
The GI50 was > 100 µM (inactive).

What about the GI50 (SF-295) of the same compound?
Its GI50 is > 100 µM (inactive).

And the GI50 (NCI/ADR-RES)?
Its GI50 is > 100 µM (inactive).

What about the GI50 (EKVX) of the same compound?
Its GI50 is 54.3 µM (inactive).

What about the GI50 (HCT-15) of the same compound?
Its GI50 is over 100 µM.

And the GI50 (ACHN)?
The GI50 was > 100 µM (inactive).

And the GI50 (OVCAR-5)?
The GI50 was > 100 µM (inactive).

What about the GI50 (A498) of the same compound?
The GI50 was > 100 µM (inactive).

And the GI50 (MDA-MB-435)?
Its GI50 is > 100 µM (inactive).

And the GI50 (NCI-H522)?
The GI50 was > 100 µM (inactive).

What about the GI50 (KM12) of the same compound?
Its GI50 is 65.6 µM (inactive).

What about the GI50 (RXF 393) of the same compound?
Its GI50 is > 100 µM (inactive).

What about the GI50 (SK-MEL-28) of the same compound?
The GI50 was > 100 µM (inactive).

And the GI50 (T47D)?
Its GI50 is > 100 µM (inactive).

What about the GI50 (HOP-62) of the same compound?
The GI50 was > 100 µM (inactive).

What about the GI50 (TK-10) of the same compound?
The GI50 was > 100 µM (inactive).

What about the GI50 (SF-268) of the same compound?
Its GI50 is > 100 µM (inactive).

What about the GI50 (786-0) of the same compound?
Its GI50 is > 100 µM (inactive).

What about the GI50 (COLO 205) of the same compound?
Its GI50 is > 100 µM (inactive).

And the GI50 (Hs-578T)?
Its GI50 is > 100 µM (inactive).

And the GI50 (MDA-MB-231)?
The GI50 was > 100 µM (inactive).

And the GI50 (DU-145)?
Its GI50 is > 100 µM (inactive).

What about the GI50 (HOP-92) of the same compound?
The GI50 was > 100 µM (inactive).

And the GI50 (SNB-19)?
Its GI50 is > 100 µM (inactive).

What about the GI50 (PC-3) of the same compound?
Its GI50 is > 100 µM (inactive).

And the GI50 (BT-549)?
Its GI50 is > 100 µM (inactive).

What about the GI50 (SR) of the same compound?
The GI50 was 41.8 µM (inactive).

And the GI50 (SF-539)?
Its GI50 is > 100 µM (inactive).

And the GI50 (Malme-3M)?
Its GI50 is > 100 µM (inactive).

And the GI50 (SK-OV-3)?
Its GI50 is 71.3 µM (inactive).

And the GI50 (SK-MEL-5)?
Its GI50 is > 100 µM (inactive).

And the GI50 (NCI-H460)?
The GI50 was > 100 µM (inactive).

And the GI50 (IGROV-1)?
Its GI50 is > 100 µM (inactive).

And the GI50 (HT-29)?
Its GI50 is > 100 µM (inactive).

And the GI50 (HCT-116)?
The GI50 was > 100 µM (inactive).

And the GI50 (HCC 2998)?
Its GI50 is > 100 µM (inactive).

What about the GI50 (SW-620) of the same compound?
Its GI50 is > 100 µM (inactive).

What about the GI50 (UACC-62) of the same compound?
The GI50 was > 100 µM (inactive).

And the GI50 (LOX IMVI)?
Its GI50 is 69 µM (inactive).

What about the GI50 (SK-MEL-2) of the same compound?
Its GI50 is > 100 µM (inactive).

And the GI50 (MCF7)?
Its GI50 is > 100 µM (inactive).

And the GI50 (U-251)?
The GI50 was > 100 µM (inactive).

What about the GI50 (M14) of the same compound?
The GI50 was > 100 µM (inactive).

And the GI50 (MOLT-4)?
Its GI50 is 51.4 µM (inactive).

And the GI50 (CCRF-CEM)?
The GI50 was > 100 µM (inactive).

And the GI50 (SNB-75)?
Its GI50 is > 100 µM (inactive).

And the GI50 (MDA-N)?
The GI50 was > 100 µM (inactive).

And the GI50 (OVCAR-4)?
Its GI50 is > 100 µM (inactive).

And the GI50 (UO-31)?
Its GI50 is > 100 µM (inactive).

What about the GI50 (SN12C) of the same compound?
The GI50 was > 100 µM (inactive).
